{"source": "paper PMC6271500", "about": "“Bowman-Birk Protease Inhibitor from Vigna unguiculata Seeds Enhances the Action of Bradykinin-Related Peptides” (Molecules, 2014)", "key": {"[1]": {"system": "guinea pig (Cavia porcellus) ileum", "assay": "Smooth muscle constriction force assay, guinea pig ileum", "description": "Male guinea pigs (Cavia porcellus) weighing between 200 and 300 g and fasted for 24 h were euthanized using an overdose of anesthetic at 120 mg/kg (ketamine and xylazine). The protocol was approved by the Committee on the Ethics of Animal Experiments of the Institute of Biology, University of Brasilia (Proc. Number 737402/2008). Segments of 2 cm from the terminal portion of the ileum were removed and washed in Tyrode’s solution (g/L: 8.00 NaCl,0.20 KCl, 0.20 CaCl2, 0.21 MgCl2), and attached to a glass rod that was immersed in a physiological bath chamber with a capacity of 10 mL containing Tyrode solution at 37 °C. In the opposite region, a thread of silk was attached to the F-60 isometric transducer connected to a polygraph (NARCO Bio-Systems, Houston, TX, USA). The bath was kept aerated constantly with carbogen (95% O2 + 5% CO2). Previously, as a control, smooth muscle response was analyzed using Bk from Sigma Aldrich. Experiments were done in triplicate, and constriction force was analyzed by addition of Bk and analogues in the absence or presence of BTCI, in three concentrations: 1, 5 or 10 µM. The hypotensive effects of the complexes were also evaluated in the presence of trypsin or chymotrypsin. After each experiment, the bath solution was exchanged three times in order to remove the drug used. Statistical analysis was carried out using the Paleontological Statistics (PAST) Software Package for Education and Data Analysis. A value of Student’s t-test p < 0.05 was considered to denote a significant difference."}, "[2]": {"system": "bovine pancreatic trypsin", "assay": "Trypsin inhibition by BTCI (BAPNA substrate)", "format": "biochemical", "conditions": "BTCI 10 µM, peptide 0–10 µM", "description": "(§1) The inhibitory activities of BTCI against bovine pancreatic trypsin (25 kDa; A280^1% = 15.90) and chymotrypsin (24 kDa; A280^1% = 20.40) (Sigma Co.) were first determined in the absence of Bk and Bk-related peptides. Briefly, the residual enzymatic activities were assayed by mixing 40 µL of chymotrypsin (28.60 µM) or trypsin (2.57 µM) with BTCI at concentration range of 0–10 µM for trypsin and 0–40 µM for chymotrypsin at 25 °C for 15 minutes. After that, 200 µL of 0.40·mg·mL^−1 N-glutaryl-L-phenylalanine-p-nitroanilide (GPNA) in 50 mM Tris-HCl, 20 mM CaCl2, pH 7.6 for chymotrypsin assay or 0.43 mg·mL^−1 Nα-benzoyl-DL-arginine 4-nitroanilide hydrochloride (BAPNA) in 50 mM Tris-HCl, 20 mM CaCl2, pH 8.2 for trypsin assay were added. Substrate hydrolysis was done for 15 minutes and stopped by adding 30% (v/v) acetic acid. The enzymatic assays were also carried out in the presence of Bk at similar concentration of BTCI. The relative enzymatic activities were evaluated by the liberation of p-nitroanilide, which was monitored at 410 nm using a SpectraMax Plus 384 Microplate Reader spectrophotometer (Molecular Devices, Sunnyvale, CA, USA). The obtained values are an average of three independent measurements. Inhibition curves were obtained by plotting relative activities of the proteases vs. BTCI concentration in the absence or presence of Bk and Bk-related peptides. […]"}, "BTCI": {"system": "BTCI", "assay": "Dynamic light scattering, BTCI-Bk complex formation", "format": "binding, Vigna unguiculata", "description": "(§2) The hydrodynamic properties of the BTCI through the complex formation with Bk and analogues were monitored using DLS technique with laser source operated at 800 nm on the DynaPro LSR model (Wyatt Technology Corporation, Santa Barbara, CA, USA). The internal temperature was controlled by a Peltier system coupled to the detector. The Bk, Bk-related peptides, BTCI and BTCI-Bk, BTCI-Bk-related peptides complexes, were incubated for 30 minutes in 2 mM Tris-HCl pH 7.4 and then centrifuged at 5000 g and filtered ([…]) before the DLS experiments. The average of 100 acquisitions for each measure was considered for BTCI (25 µM) and synthetic Bk-related peptides (25 µM) separately and subsequently for the BTCI-Bk complexes (1:1). The formation of complexes was analyzed at 37 °C, considering the relationship of the scattered light intensity signal and the hydrodynamic diameter of the samples, using the Dynamics V6 program (Wyatt Technology Corporation)."}, "bovine chymotrypsin": {"system": "bovine chymotrypsin", "assay": "Chymotrypsin inhibition by BTCI (GPNA substrate)", "format": "biochemical", "conditions": "BTCI 40 µM, peptide 0–10 µM", "description": "as §1"}, "[3]": {"assay": "Cardiovascular effects of infusion of Bk and Bk-related peptides with BTCI or vehicle in anesthetized rats", "format": "in vivo, male Wistar rats", "conditions": "for aortic vasodilation (change in AVC) / change in mean arterial pressure (MAP) / renal vasodilation (change in RVC): from the baseline value, mean ± SEM, 6 experiments", "description": "All experiments were conducted on adult male Wistar rats (280–350 g). They were obtained from the central animal house of the Federal University of Goiás. Experimental procedures were designed with strict adherence to the National Health Institute Guidelines for Care and Use of Laboratory Animals as approved by the Ethics Committee, Federal University of Goiás (034/12).\nOn the day of experiments, the rats were anesthetized with halothane (2%–3% in 100% O2; Cristália Ltda, Itapira, SP, Brazil) prior to the catheterization of the right femoral vein and artery. After the catheter placement, the rats were removed from the halothane and the anesthesia was maintained with urethane (1.2 g·kg^−1 b.wt., i.v.; Sigma-Aldrich Co.). The trachea was cannulated to reduce airway resistance. The body temperature was kept at 37 ± 0.5 °C with a thermostatically controlled heated table.\nRenal blood flow (RBF) and aortic blood flow (ABF) were measured with an ultrasonic transit-time flowmeter (Transonic Systems, Inc., Ithaca, NY, USA). Data were recorded continuously with an analog-to-digital converter (PowerLab 4/25, ML845, AD Instruments, Bella Vista, Australia). Mean arterial pressure (MAP) was determined from the pulsatile signal. Aortic vascular conductance (AVC) and renal vascular conductance (RVC) were calculated by a ratio of ABF and RBF divided by MAP, and were expressed as percentage of baseline. Increasing doses of BTCI (0.3, 3, 30 and 300 µg·kg^−1, i.v.) were infused.\nResults are presented as means ± S.E.M. The effects of infusion of Bk, Bk-related peptides and BTCI on cardiovascular parameters were analyzed by one-way ANOVA. […] A value of Student’s t-test p < 0.05 was considered to denote a significant difference."}, "[4]": {"assay": "Dynamic light scattering, free peptides and free BTCI", "format": "physicochemical", "conditions": "25 µM, 2 mM Tris-HCl pH 7.4, 37 °C", "description": "as §2"}, "[5]": {"conditions": "peptide 120 µg·kg^−1 + BTCI 3 µg·kg^−1, i.v."}, "[6]": {"conditions": "peptide 120 µg·kg^−1 i.v. + BTCI 3 µg·kg^−1 i.v."}, "[7]": {"conditions": "peptide 120 µg·kg^−1 i.v., without BTCI"}}}
{"substance": "[Val]^1[Thr]^6-bradykinyl-Gln-Ser [Bk2]", "values": [{"measurement": "contraction force relative to Bk", "setting": "[1]; 10 µM, after activation by trypsin treatment", "result": "approximately 1.3 fold"}, {"measurement": "smooth muscle contraction when pretreated with BTCI and serine proteases", "setting": "[1]; data not shown", "result": "did not induce muscle contraction"}, {"measurement": "smooth muscle contraction", "setting": "[1]; free peptide, 1, 5, 10 µM, 37 °C, triplicate", "result": "unable to exert their contractive effects"}, {"measurement": "smooth muscle contraction after trypsin pretreatment", "setting": "[1]; peptide pretreated with trypsin, 1.0, 5.0, 10.0 µM", "result": "induced smooth muscle contraction, in a concentration-responsive manner (Figure 7), and at higher levels than Bk in free state"}, {"measurement": "effect of peptide on BTCI inhibition of trypsin", "setting": "[2]", "result": "did not interfer in their activities"}, {"measurement": "polydispersity of peptide complexed with BTCI (in words)", "setting": "BTCI; 1:1 complex, pH 7.4, 37 °C", "result": "moderate polidispersity"}, {"measurement": "hydrodynamic diameter of BTCI in the presence of peptide", "setting": "BTCI; BTCI 25 µM : peptide 25 µM (1:1), 30 min, 2 mM Tris-HCl pH 7.4, 37 °C", "result": "increased from 1.7 nm to 3.3 nm"}, {"measurement": "effect of peptide on BTCI inhibition of chymotrypsin", "setting": "bovine chymotrypsin", "result": "did not interfer in their activities"}, {"measurement": "effect of association with BTCI on aortic vasodilation", "setting": "[3]; [5]", "result": "potentiated"}, {"measurement": "effect of association with BTCI on renal vasodilation", "setting": "[3]; [5]", "result": "potentiated renal"}, {"measurement": "aortic vasodilation (change in AVC)", "setting": "[3]; [6]", "result": "28% ± 2.6%"}, {"measurement": "change in mean arterial pressure (MAP)", "setting": "[3]; [6]", "result": "−12 ± 2.7", "unit": "mmHg"}, {"measurement": "renal vasodilation (change in RVC)", "setting": "[3]; [6]", "result": "29% ± 4.9%"}, {"measurement": "aortic vasodilation (change in AVC)", "setting": "[3]; [7]", "result": "19% ± 2.7%"}, {"measurement": "change in mean arterial pressure (MAP)", "setting": "[3]; [7]", "result": "−12 ± 1.2", "unit": "mmHg"}, {"measurement": "renal vasodilation (change in RVC)", "setting": "[3]; [7]", "result": "19% ± 3.0%"}, {"measurement": "polydispersity, peptide", "setting": "[4]", "result": "lower than 0.15"}]}
